The values below come from US20260256716A1, “COMPOSITIONS AND METHODS OF USE THEREOF” (Board of Supervisors of Louisiana State University and …, priority 2023, published 2026).

One assay has as its system NRF-2. Put plainly: Western blot of NRF-2 expression in ARPE cells after H2O2 oxidative stress. The format is cell-based, human. The settings on record: 1000 nM to 1 nM overnight, then H2O2, 24 hours, lower doses highest. The method, then:
ARPE cells were plated and treated with 10-fold dilutions of R-DOI from 1000 nM to 1 nM. Following an overnight treatment, cells were incubated with hydrogen peroxide (H2O2) to mimic an oxidative stress induced disease event. 24 hours later, cell lysates were collected and protein levels were normalized among samples and run on a western blot for comparison of NRF-2 expression relative to a cellular protein loading control, b-actin. While doses increased protective NRF-2 expression, lower doses increased NRF-2 to the highest levels, accentuating the need for appropriate dose ranges in facilitating treatment effects.
Background: A western blot detects proteins with antibodies after separation by electrophoresis.

Assay [1] concerns ARPE cells. In words: Blue light induced mitochondrial fragmentation in ARPE cells (mitotracker green). Format: cell-based, human. To be noted: 100 nM; 48 hours; hyperglycemic conditions; blue light 400 nm. The method, then: ARPE cells grown under hyperglycemic conditions were plated and mock treated or treated with R-DOI or 2C-iBu at 100 nM. 48 hours post treatment, mitochondria in live cells were visualized by staining mitochondria with mitotracker green (green). Once stained, live ARPE cells were exposed to focused blue light at 400 nm and the ability of drugs to protect against blue light damage-induced mitochondrial fragmentation was assessed.

The test system of assay [2] is ARPE-19 cells. In words: SA-β-Gal cellular senescence in ARPE-19 cells in nutrient rich media (DMEM). The format is cell-based, human. To be noted: 10 nM in starvation media overnight, then DMEM 7% FCS 72 hours. On the procedure:
ARPE-19 cells in nutrient rich media (DMEM; 7% FCS) were seeded overnight prior to being replaced with starvation media (DMEM; 0.5% FCS) containing 10 nM R-DOI or 10 nM M100,907. After overnight incubation in starvation media with drug, cells were swapped to DMEM 7% FCS media for 72-hours. After the 72-hour incubation, cells were fixed and stained for SA-β-Gal for 6-hours. Cells nuclei were then stained with DAPI for total-cell enumeration. SA-β-Gal positive cells, and total cells per frame, were quantified by microscopy.

A further assay concerns AMP kinase. Put plainly: AMP kinase activation in treated cells. The settings on record: low nM concentrations. Format: cell-based.
The subject of another assay is SIRT1 and 3. Put plainly: Western analysis of Sirtuin (SIRT) 1 and 3 expression. Format: cell-based. The settings on record: varying concentrations, increased as concentrations decreased to nM. An excerpt: Sirtuins utilize NAD to suppress pathophysiological processes of aging, including diabetic retinopathies, AMD and Neurodegeneration. Representative western analysis of Sirtuin (SIRT) 1 and 3 expression following cellular treatment with the representative 5-HT2A Receptor agonist R-DOI at varying concentrations.

The subject of assay [3] is ARPE cells. In words: Blue light induced mitochondrial oxidative stress in ARPE cells (Mitosox). Format: cell-based, human. To be noted: 0.001 nM; 24 hours; hyperglycemic conditions; blue light 400 nm 12 seconds. On the procedure: Representative 5-HT2A Receptor Agonist, R-DOI Inhibits Blue Light Induced Mitochondrial-Mediated Oxidative Stress at low sub-nanomolar concentrations thereby reversing adverse processes that are associated with retinal exposure to blue light. ARPE cells grown under hyperglycemic conditions were plated and mock treated or treated with R-DOI at 0.001 nM. 24 hours post treatment, live ARPE cells were labeled with the mitochondrial oxidative stress indicator dye Mitosox that becomes fluorescent red under mitochondria-induced oxidative stress conditions. Once stained, live ARPE cells were exposed to focused blue light at 400 nm for 12 seconds and the ability of drugs to protect against blue light damage-induced mitochondrial oxidative stress induction was assessed. In the absence of 5HT2A agonists, there was a clear increase in red fluorescence upon blue light exposure.

Assay [4] has as its system ARPE-19 cells. Put plainly: ARPE-19 proliferation (DAPI cell number, fold change in growth). The format is cell-based, human. To be noted: ARPE-19, 72 h, R-DOI 0.1 nM or 1 nM. The method, then:
Specific 5-HT2A Receptor Activation via Model Phenethylamines, like R-DOI. […] ARPE-19 cells were plated in nutrient rich media, DMEM, containing 7% dialyzed FCS and then starved in DMEM media containing 0.5% dialyzed FCS. Cells were then changed to 7% dialyzed FCS DMEM media containing physiolocial relevant levels of serotonin at varying concentrations and grown for 72-hours. Cell numbers were determined through DNA staining with DAPI and fold change in growth was determined from baseline readings at 24-hours. To assess if agonists of the 5HT2A receptor could enhance cell health and proliferation specifically through the 5-HT2A receptor, the model 5-HT2A receptor agonist, R-DOI was added at either 0.1 nM or 1 nM. […] Also, included is a summary of physiological serotonin and 5-HT2A receptor agonist/antagonist outcomes on cellular proliferation. This increase in proliferation promotes the formation of a compact RPE-monolayer which is important for maintaining a healthy blood-retinal barrier and can occur with low dose administration of 5-HT2A receptor agonists.
ARPE-19 cells were plated in nutrient rich media, DMEM, containing 7% dialyzed FCS and then starved in DMEM media containing 0.5% dialyzed FCS. Cells were then changed to 7% dialyzed FCS DMEM media containing physiological relevant levels of serotonin at varying concentrations and grown for 72-hours. Cell numbers were determined through DNA staining with DAPI and fold change in growth was determined from baseline readings at 24-hours. To assess if serotonin enhances cell health and proliferation specifically through the 5-HT2A receptor, the 5-HT2A receptor antagonist, M100,907 at 10 nM was included during serotonin induction.

In assay [5] the test system is phosphorylated myosin light chain. In words: Western blot of phosphorylated myosin light chain (MLC) in ARPE-19 cells under hyperglycemic conditions. Format: cell-based, human. The settings on record: ARPE-19, DMEM High glucose 7% FCS overnight; 10 nM; western blot. On the procedure:
A Hallmark of Age-Associated Ocular and Neurodegenerative Disorders is Cytoskeletal Alteration and Induction of CONTRACTILE Stress Fiber Formation. Expression and activation via phosphorylation of Myosin Light Chain (MLC), is a biomarker of disease development. ARPE-19 cells and ARPE-19 cells specifying 5-HT2AR knockouts were plated in nutrient rich media (DMEM; 7% FCS) overnight. Cells were fixed, permeabilized, and stained phalloidin and α-phosphorylated-Myosin light chain. Cytoskeletal elements were then visualized by fluorescent microscopy to visualize actin fiber cytoskeletal structures (phalloidin, red) and contractile phosphorylated myosin light chain (green) via fluorescent microscopy. […] ARPE-19 cells were cultured under hyperglycemic conditions in nutrient rich media (DMEM High glucose; 7% FCS) overnight either in the absence or presence of 5-HT2A receptor agonists R-DOI and 2CiBu at 10 nm or 100 nM concentrations. The relative expression of the activated disease biomarker contractile phosphorylated myosin light chain was determined using specific antibodies and western blot analysis. 5-HT2A agonists. […] Therefore, 5-HT2A agonism at low concentrations have the potential to prevent and reverse deleterious cytoskeletal events that can be induced under hyperglycemic conditions, such as in diabetics.
This can be consistent with 2C-iBu being able to regulate IOP and that 5HT2A agonists prevented edema formation and disruption of corneal architecture in a model of herpetic keratitis.

The subject of another assay is A549 cells. Put plainly: Cell viability after cumene peroxide oxidative stress (Hoechst / propidium iodide). Format: cell-based. The method, then:
A549 cells were treated with the indicated concentrations of R-DOI (panel A) or 2C-iBu (panel B) and subsequently exposed to cumene peroxide to oxidatively stress cells. Cell viability was visualized by staining with Hoescht (Blue) to mark total cells (live plus dead) and propidium iodide (red) to mark dead cells.

Take `COc1cc(C[C@@H](C)N)c(OC)cc1I` (single isomer, unassigned) [R-DOI, R enantiomer 2,5-Dimethoxy-4-iodoamphetamine]: the NRF-2 expression result in the assay with NRF-2 was “Increases Expression of the master regulator of antioxidant gene expression NRF-2”; in the assay with NRF-2 (listed as (R)-DOI) it was “Upregulates Expression of NRF-2”. For the same molecule, the “blue light induced mitochondrial fragmentation/damage” value with ARPE cells [1] is “Inhibit Blue Light and Oxidative Stress Induced Mitochondrial Fragmentation/Damage”. The “cellular senescence (SA-β-Gal positive cells)” value in the assay with ARPE-19 cells [2] was “Decreases Basal Levels of Cellular Senescence”. Moreover, in the assay on AMP kinase, the AMP kinase activation entry was “activation of AMP kinase”. Besides, the “SIRT1 and 3 expression” value in the assay on SIRT1 and 3 is “induced”; with SIRT1 and 3 (listed as (R)-DOI) it was “upregulates SIRT1”. In the assay with ARPE cells [3], the “blue light induced mitochondrial oxidative stress” value was “abrogated mitochondrial oxidative stress responses”. The “proliferation of RPE (fold change in growth)” value in the assay with ARPE-19 cells [4] is “Stimulate and Restore Healthy Proliferation of RPE”. In addition, in assay [5], the “hyperglycemia induced phosphorylated MLC levels” value was “suppressed hyperglycemia induced phosphorylated MLC levels”. Besides, the “oxidative stress-induced cell death” value with A549 cells is “protected cells from oxidative stress-induced cell death”.
